Measurements from US20250179059A1 (The Regents of the University of California, priority 2021, published 2025).
Like-named read-outs stand apart in the source and are kept apart here.

Key:
human BRD4 bromodomain I = target: T1, human BRD4 bromodomain I (Homo sapiens, UniProt O60885); assay: Bromodomain binding assay (AlphaScreen), BRD4 BDI; details: Table C1
T1 construct: human BRD4 bromodomain I [residues 44-170]; host or cells: E. coli
Protocol: Bromodomain Binding Assay
The bromodomain binding assay utilizes AlphaScreen technology. Compounds compete with a biotinylated peptide ligand (from histone H4: aa 1-21, K5/K8/K12/K16Ac-biotin) for binding to a hexahistidine (His6)-tagged bromodomain. Peptide binding is detected by fluorescence signal after singlet oxygen energy transfer from peptide-bound AlphaScreen streptavidin-coated donor beads to His6-tagged bromodomain-bound nickel-chelate acceptor beads (PerkinElmer). Briefly, 8 μL 2.5× bromodomain (E. coli expressed, N-terminal His6-tagged human BRD4 bromodomain II [based on Genbank NM_058243, residues 349-460] or N-terminal His6-tagged human BRD4 bromodomain I [residues 44-170]) in reaction buffer (50 mM HEPES [pH 7.5], 100 mM NaCl, 0.05% CHAPS, 0.1% BSA, 1% DMSO) is added to wells of an assay plate (384-well low flange white, flat bottom, polystyrene microplate, Corning #3572; buffer only is added to some wells as a negative control). A compound concentration series (10 concentrations, 3-fold serial dilutions previously prepared in 100% DMSO, or 100% DMSO only negative control) is delivered to the assay plate with an Echo 550 acoustic liquid handler (Labcyte), followed by plate centrifugation and incubation for 30 minutes at room temperature. Then 4 μL 5× biotinylated peptide ligand is added, followed by plate centrifugation and gentle shaking for 30 minutes at room temperature to mix. After this incubation, 4 μL 5× donor beads are added, and the plate is centrifuged, followed by brief gentle shaking to mix. Finally, 4 μL 5× acceptor beads are added, and the plate is centrifuged, followed by gentle shaking for 60 minutes at room temperature in the dark. AlphaScreen signal (excitation/emission: 680 nm/520-620 nm) is detected with an EnSpire multimode plate reader (PerkinElmer). Percentage peptide binding is plotted as a function of concentration, and curve fitting is used to determine competitive compound binding ICsos.

[1] = target: T2, human BRD4 bromodomain II (Homo sapiens, UniProt O60885); assay: Bromodomain binding assay (AlphaScreen), BRD4 BDII
T2 construct: human BRD4 bromodomain II [based on Genbank NM_058243, residues 349-460]; host or cells: E. coli
Summary of the method: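 Compounds (10-point, 3-fold series) were preincubated 30 min at room temperature with E. coli-expressed N-terminal His6-tagged BRD4 BDII (residues 349-460) or BDI (residues 44-170) in 50 mM HEPES pH 7.5, 100 mM NaCl, 0.05% CHAPS, 0.1% BSA, 1% DMSO. Displacement of biotinylated tetra-acetylated H4 1-21 peptide was read by AlphaScreen; IC50 from curve fitting.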

[2] = system: human SKM-1 acute myeloid leukemia cells; assay: SKM-1 antiproliferation cell-based assay (ATPlite); details: Homo sapiens
Summary of the method: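 Log-phase cells in RPMI 1640/15% FBS were seeded at 34722 cells/mL and exposed for 4 days to nine-concentration DMSO serial dilutions in triplicate. Viability was read as ATP luminescence (ATPlite 1step), and IC50 values came from variable-slope non-linear regression.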

[3] = AlphaScreen assay, Table C1, read-out: BRD4 BDII IC50
[4] = AlphaScreen assay, Table C2, read-out: BRD4 BDII IC50
[5] = SKM-1, 96 h, SKM-1 antiproliferation assay, 4 days, Table C2
[6] = SKM-1, SKM-1 antiproliferation assay
[7] = BRD4 BDII AlphaScreen assay, read-out: BRD4 BD2 IC50

IC50 (human BRD4 bromodomain I)	IC50 [1, 3]	IC50 [1, 4]	GI50 [2, 5]	GI50 [2, 6]	IC50 [1, 7]	SMILES
> 100 nM	10 to 100 nM	10 to 100 nM				CC(=O)Nc1ccc(-c2cccc(-c3cc(N4CCN(C)CC4)no3)c2O)cc1 [Example 6, N-(2′-Hydroxy-3′-(3-(4-methylpiperazin-1-yl)isoxazol-5-yl)-[1,1′-biphenyl]-4-yl)acetamide]
> 100 nM	10 to 100 nM	10 to 100 nM				CC(=O)Nc1ccc(-c2cccc(-c3cc(N4CCNCC4)no3)c2O)cc1 [Example 3, N-(2′-Hydroxy-3′-(3-(piperazin-1-yl)isoxazol-5-yl)-[1,1′-biphenyl]-4-yl)acetamide]
> 100 nM	1 to 10 nM	1 to 10 nM				CC(=O)Nc1ccc(-c2cccc(-c3cccc(N4CCNCC4)c3)c2O)cc1Cl [Example 171, N-(3-chloro-2′-hydroxy-3″-(piperazin-1-yl)-[1,1′:3′,1″-terphenyl]-4-yl)acetamide]
> 100 nM	10 to 100 nM	10 to 100 nM				CC(=O)Nc1ccc(-c2cccc(-c3cccc(N4CCOCC4)c3)c2O)cc1F [Example 95, N-(3-Fluoro-2′-hydroxy-3″-morpholino-[1,1′:3′,1″-terphenyl]-4-yl)acetamide]
		1 to 10 nM	30 to 300 nM			CC(=O)NCc1ccc(-c2cccc(-c3ccc(N4CCN(C)C4=O)c(Cl)c3)c2O)cc1N1CCNCC1 [Example 320, N-((3″-chloro-2′-hydroxy-4″-(3-methyl-2-oxoimidazolidin-1-yl)-3-(piperazin-1-yl)-[1,1′:3′,1″-terphenyl]-4-yl)methyl)acetamide]
				30 to 300 nM	1 to 10 nM	Cn1ccn(-c2ccc(-c3cc(F)cc(-c4cccc(N5CCCN(C(C)(C)C)CC5)c4)c3O)cc2Cl)c1=O [Example 851, 1-(3″-(4-(tert-Butyl)-1,4-diazepan-1-yl)-3-chloro-5′-fluoro-2′-hydroxy-[1,1′:3′,1″-terphenyl]-4-yl)-3-methyl-1H-imidazol-2(3H)-one]
				0.3 to 30 nM	0.01 to 1 nM	COc1ncc(-c2cc(F)cc(-c3ccc(-n4ccn(C)c4=O)c(Cl)c3)c2O)cc1N1CC[C@@]2(CCCN2C(C)C)C1 [Example 957, (S)-1-(3-chloro-5′-fluoro-2′-hydroxy-3′-(5-(1-isopropyl-1,7-diazaspiro[4.4]nonan-7-yl)-6-methoxypyridin-3-yl)-[1,1′-biphenyl]-4-yl)-3-methyl-1,3-dihydro-2H-imidazol-2-one]
		0.01 to 1 nM	30 to 300 nM			CC(=O)Nc1ccc(-c2cc(F)cc(-c3ccc(F)c(N4CCNCC4)c3)c2O)cc1F [Example 237, N-(3,4″,5′-trifluoro-2′-hydroxy-3″-(piperazin-1-yl)-[1,1′:3′,1″-terphenyl]-4-yl)acetamide]
				0.3 to 30 nM	0.01 to 1 nM	Cc1cc(-c2ccc(-n3ccn(C)c3=O)c(Cl)c2)c(O)c(-c2cnc(N)c(N3CCC4(CCCN4C(C)C)C3)c2)n1 (stereo not drawn) [Example 978, 1-(4-(6′-amino-3-hydroxy-5′-(1-isopropyl-1,7-diazaspiro[4.4]nonan-7-yl)-6-methyl-[2,3′-bipyridin]-4-yl)-2-chlorophenyl)-3-methyl-1H-imidazol-2(3H)-one]
				0.3 to 30 nM	0.01 to 1 nM	Cc1cc(-c2ccc(-n3ccn(C)c3=O)c(Cl)c2)c(O)c(-c2cc(N3CCN(C(C)(C)C)CC3)cc(F)c2F)n1 [Example 1027, 1-(4-(2-(5-(4-(tert-butyl)piperazin-1-yl)-2,3-difluorophenyl)-3-hydroxy-6-methylpyridin-4-yl)-2-chlorophenyl)-3-methyl-1H-imidazol-2(3H)-one]
				0.3 to 30 nM	10 to 100 nM	Cn1ccn(-c2ccc(-c3ccnc(-c4cnc(N)c(N5CCN(C(C)(C)C)CC5)c4)c3O)cc2Cl)c1=O [Example 984, 1-(4-(6′-amino-5′-(4-(tert-butyl)piperazin-1-yl)-3-hydroxy-[2,3′-bipyridin]-4-yl)-2-chlorophenyl)-3-methyl-1H-imidazol-2(3H)-one]
		1 to 10 nM	0.3 to 30 nM			CN[C@H]1CCN(c2cc(-c3cc(F)cc(-c4ccc(-n5ccn(C)c5=O)c(Cl)c4)c3O)cc(NC(C)=O)n2)C1 [Example 519, (S)-N-(4-(3′-chloro-5-fluoro-2-hydroxy-4′-(3-methyl-2-oxo-2,3-dihydro-1H-imidazol-1-yl)-[1,1′-biphenyl]-3-yl)-6-(3-(methylamino)pyrrolidin-1-yl)pyridin-2-yl)acetamide]
		0.01 to 1 nM	0.3 to 30 nM			Cn1ccn(-c2ccc(-c3cc(F)cc(-c4ccnc(N5CC6CCNC6C5)c4)c3O)cc2Cl)c1=O (stereo not drawn) [Example 655, 1-(3-chloro-5′-fluoro-3′-(2-(hexahydropyrrolo[3,4-b]pyrrol-5(1H)-yl)pyridin-4-yl)-2′-hydroxy-[1,1′-biphenyl]-4-yl)-3-methyl-1H-imidazol-2(3H)-one]
				0.3 to 30 nM	1 to 10 nM	Cn1ccn(-c2ccc(-c3ccnc(-c4cccc(N5CCN(C(C)(C)C)CC5)c4)c3O)cc2Cl)c1=O [Example 979, 1-(4-(2-(3-(4-(tert-butyl)piperazin-1-yl)phenyl)-3-hydroxypyridin-4-yl)-2-chlorophenyl)-3-methyl-1H-imidazol-2(3H)-one]
		1 to 10 nM	300 to 3000 nM			O=C1CCN1c1ccc(-c2cc(F)cc(-c3ccnc(N4CCNCC4)c3)c2O)cc1Cl [Example 417, 1-(3-chloro-5′-fluoro-2′-hydroxy-3′-(2-(piperazin-1-yl)pyridin-4-yl)-[1,1′-biphenyl]-4-yl)azetidin-2-one]
		1 to 10 nM	30 to 300 nM			C[C@@H]1CN(c2cc(-c3cc(Cl)cc(-c4ccc(-n5ccn(C)c5=O)c(F)c4)c3O)ccn2)CCN1 [Example 538, (R)-1-(5′-chloro-3-fluoro-2′-hydroxy-3′-(2-(3-methylpiperazin-1-yl)pyridin-4-yl)-[1,1′-biphenyl]-4-yl)-3-methyl-1H-imidazol-2(3H)-one]
		10 to 100 nM	0.3 to 30 nM			CCc1ncc(-c2cc(F)cc(-c3ccc(-n4ccn(C)c4=O)c(Cl)c3)c2O)cc1N1CCN(C(C)(C)C)CC1 [Example 848, 1-(3′-(5-(4-(tert-butyl)piperazin-1-yl)-6-ethylpyridin-3-yl)-3-chloro-5′-fluoro-2′-hydroxy-[1,1′-biphenyl]-4-yl)-3-methyl-1H-imidazol-2(3H)-one]
		10 to 100 nM	300 to 3000 nM			C[C@H]1CCCN(c2cc(-c3cc(F)cc(-c4ccc(-n5ccn(C)c5=O)c(Cl)c4)c3O)cc3[nH]ncc23)C1 [Example 596, (S)-1-(3-chloro-5′-fluoro-2′-hydroxy-3′-(4-(3-methylpiperidin-1-yl)-1H-indazol-6-yl)-[1,1′-biphenyl]-4-yl)-3-methyl-1H-imidazol-2(3H)-one]
		0.01 to 1 nM	30 to 300 nM			CN[C@H]1CCCN(c2cc(-c3cc(F)cc(-c4ccc(-n5ccn(C)c5=O)c(Cl)c4)c3O)ccn2)C1 [Example 440, (S)-1-(3-chloro-5′-fluoro-2′-hydroxy-3′-(2-(3-(methylamino)piperidin-1-yl)pyridin-4-yl)-[1,1′-biphenyl]-4-yl)-3-methyl-1H-imidazol-2(3H)-one]
				0.3 to 30 nM	1 to 10 nM	Cc1cc(-c2ccc(-n3ccn(C)c3=O)c(Cl)c2)c(O)c(-c2ccc(Cl)c(N3CCN(C(C)(C)C)CC3)c2)n1 [Example 1013, 1-(4-(2-(3-(4-(tert-butyl)piperazin-1-yl)-4-chlorophenyl)-3-hydroxy-6-methylpyridin-4-yl)-2-chlorophenyl)-3-methyl-1H-imidazol-2(3H)-one]
				0.3 to 30 nM	1 to 10 nM	CC(=O)Nc1ccc(-c2cc(C)nc(-c3cccc(N4CCN(C(C)(C)C)CC4)c3)c2O)cc1Cl [Example 1007, N-(4-(2-(3-(4-(tert-butyl)piperazin-1-yl)phenyl)-3-hydroxy-6-methylpyridin-4-yl)-2-chlorophenyl)acetamide]
		1 to 10 nM	0.3 to 30 nM			O=c1sccn1-c1ccc(-c2cc(F)cc(-c3ccnc(N4CCNCC4)c3)c2O)cc1Cl [Example 473, 3-(3-chloro-5′-fluoro-2′-hydroxy-3′-(2-(piperazin-1-yl)pyridin-4-yl)-[1,1′-biphenyl]-4-yl)thiazol-2(3H)-one]
